In patent publication US8962628B2, “Herbicidal 5H-quinoxaline-6-one derivatives detailed description” (Syngenta Limited, priority 2010, dated 2015):

Assays:
Format in all cases: in vivo
Ipomea hederaceae [1] = assay: Herbicidal action post-emergence (Example B2); conditions: post-emergence spray with adjuvant X-77, rate 500 g/ha, evaluated after 15 days; 10=total damage to plant, 0=no damage to plant
Experimental: (§1) Seeds of crop and representative weed species were sown in standard soil in pots. After cultivation for 14 days under controlled conditions in a glasshouse (at 22/16° C., day/night; 16 hours light; 65% humidity), the plants were sprayed. The spray solution was prepared by dissolving the technical active ingredient in acetone containing 10.56 wt % Emulsogen EL, 42.22 wt % N-methylpyrrolidone and 2.22 wt % DPG-monoethyl ether to give a 5% stock solution. This was then diluted with water containing 0.2% (v/v) of the adjuvant X-77 to give the desired treatment concentration.
(§2) The test plants were then grown on under controlled conditions in a glasshouse (at 22/16° C., day/night; 16 hours light; 65% humidity) and watered twice daily. After 15 days the test was evaluated (10=total damage to plant; 0=no damage to plant).

Amaranthus retroflexus [2] = assay: Herbicidal action post-emergence (Example B2); conditions: post-emergence spray with adjuvant X-77, rate 500 g/ha, evaluated after 15 days; 10=total damage to plant, 0=no damage to plant
Experimental: as §1, §2

Setaria faberi [3] = assay: Herbicidal action post-emergence (Example B2); conditions: post-emergence spray with adjuvant X-77, rate 500 g/ha, evaluated after 15 days; 10=total damage to plant, 0=no damage to plant
Experimental: as §1, §2

Echinochloa crus-galli [4] = assay: Herbicidal action post-emergence (Example B2); conditions: post-emergence spray with adjuvant X-77, rate 500 g/ha, evaluated after 15 days; 10=total damage to plant, 0=no damage to plant
Experimental: as §1, §2

Ipomea hederaceae [5] = assay: Herbicidal action post-emergence (Example B1); conditions: post-emergence spray, rate 1000 g/ha, evaluated after 13 days; 10=total damage to plant, 0=no damage to plant
Experimental: (§3) Seeds of a variety of test species were sown in standard soil in pots. After 8 days cultivation (post-emergence) under controlled conditions in a glasshouse (at 24/16° C., day/night; 14 hours light; 65% humidity), the plants were sprayed with an aqueous spray solution derived from the formulation of the technical active ingredient in acetone/water (50:50) solution containing 0.5% Tween 20 (polyoxyethelyene sorbitan monolaurate, CAS RN 9005-64-5). The test plants were then grown under controlled conditions in a glasshouse (at 24/16° C., day/night; 14 hours light; 65% humidity) and watered twice daily. After 13 days, the test was evaluated (10=total damage to plant; 0=no damage to plant).

Solanum nigrum = assay: Herbicidal action post-emergence (Example B1); conditions: post-emergence spray, rate 1000 g/ha, evaluated after 13 days; 10=total damage to plant, 0=no damage to plant
Experimental: as §3

Amaranthus retroflexus [6] = assay: Herbicidal action post-emergence (Example B1); conditions: post-emergence spray, rate 1000 g/ha, evaluated after 13 days; 10=total damage to plant, 0=no damage to plant
Experimental: as §3

Setaria faberi [7] = assay: Herbicidal action post-emergence (Example B1); conditions: post-emergence spray, rate 1000 g/ha, evaluated after 13 days; 10=total damage to plant, 0=no damage to plant
Experimental: as §3

Echinochloa crus-galli [8] = assay: Herbicidal action post-emergence (Example B1); conditions: post-emergence spray, rate 1000 g/ha, evaluated after 13 days; 10=total damage to plant, 0=no damage to plant
Experimental: as §3

Compound: CC(C)C(=O)OC1=C(c2ccccc2C(F)(F)F)C(=O)C(C)(C)c2nccnc21 [Compound F1, isobutyric acid 8,8-dimethyl-7-oxo-6-(2-trifluoromethyl-phenyl)-7,8-dihydro-quinoxalin-5-yl ester]
- IPOHE damage to plant (score 0-10) (Ipomea hederaceae [1]): 8
- AMARE damage to plant (score 0-10) (Amaranthus retroflexus [2]): 10
- SETFA damage to plant (score 0-10) (Setaria faberi [3]): 8
- ECHCG damage to plant (score 0-10) (Echinochloa crus-galli [4]): 8

Compound: CC1(C)C(=O)C(c2ccccc2C(F)(F)F)C(=O)c2nccnc21 (stereo not shown) [Compound E1, 8,8-dimethyl-6-(2-trifluoromethyl-phenyl)-8H-quinoxaline-5,7-dione]
- IPOHE damage to plant (score 0-10) (Ipomea hederaceae [1]): 8
- AMARE damage to plant (score 0-10) (Amaranthus retroflexus [2]): 10
- SETFA damage to plant (score 0-10) (Setaria faberi [3]): 7
- ECHCG damage to plant (score 0-10) (Echinochloa crus-galli [4]): 3
- IPOHE damage to plant (score 0-10) (Ipomea hederaceae [5]): 9
- SOLNI damage to plant (score 0-10) (Solanum nigrum): 10
- AMARE damage to plant (score 0-10) (Amaranthus retroflexus [6]): 10
- SETFA damage to plant (score 0-10) (Setaria faberi [7]): 9
- ECHCG damage to plant (score 0-10) (Echinochloa crus-galli [8]): 9
